Experimental data as given in US11117901B2, “Substituted pyrazolo[4,3-h]quinazolines as choline kinase inhibitors” (NERVIANO MEDICAL SCIENCES S.R.L., priority 2017, dated 2021).

Columns and labels:
Δ49N-hChoKα = molecular target: T1, Δ49N-hChoKα (Homo sapiens, UniProt P35790); test: Biochemical kinase inhibition assay (Kinase-Glo luminescent) on Δ49N-hChoKα; conditions: recombinant Δ49N-hChoKα 2.2 nM, ATP 5 μM, choline 5 μM, 60 min rt; read-out: ChoKα IC50
T1 construct: cDNA fragment 362-1534, corresponding to aminoacids 50 457; GST (N, cleaved yes); PreScission Protease recognition site (N); made in house; host or cells: Escherichia coli BL21pLysS (DE3)
T1 sequence (P35790 50-439 isoform P35790-2): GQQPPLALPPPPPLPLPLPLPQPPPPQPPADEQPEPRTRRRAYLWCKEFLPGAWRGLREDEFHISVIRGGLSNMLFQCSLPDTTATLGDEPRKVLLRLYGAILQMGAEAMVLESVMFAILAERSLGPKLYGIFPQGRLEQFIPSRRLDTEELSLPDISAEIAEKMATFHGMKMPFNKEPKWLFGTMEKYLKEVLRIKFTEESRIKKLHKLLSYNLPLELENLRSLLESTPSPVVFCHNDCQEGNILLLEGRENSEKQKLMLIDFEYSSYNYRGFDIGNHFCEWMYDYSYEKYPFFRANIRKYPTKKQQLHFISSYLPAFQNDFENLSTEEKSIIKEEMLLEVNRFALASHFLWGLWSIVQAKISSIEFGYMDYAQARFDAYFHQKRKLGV
Outline: (§1)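 Kinase-Glo residual-ATP luminescence with in-house E. coli-expressed, tag-cleaved enzymes: Δ49N-hChoKα 2.2 nM with 5 μM choline; hChoKβ FL 30 nM with 20 μM choline. Both used 5 μM ATP, 60 min at room temperature, 1% DMSO, pH 7.5 Hepes buffer. IC50 from 4-parameter fits of ten 3-fold dilutions from 10 μM.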

hChoKβ FL = molecular target: T2, hChoKβ FL (Homo sapiens, UniProt Q9Y259); test: Biochemical kinase inhibition assay (Kinase-Glo luminescent) on hChoKβ FL; conditions: recombinant hChoKβ FL 30 nM, ATP 5 μM, choline 20 μM, 60 min rt; read-out: ChoKβ IC50
T2 construct: hChoKβ full length (FL), corresponding to aminoacids 2-395; GST (N, cleaved yes); PreScission Protease recognition site (N); made in house; host or cells: Escherichia coli BL21pLysS (DE3)
T2 sequence (Q9Y259 2-395): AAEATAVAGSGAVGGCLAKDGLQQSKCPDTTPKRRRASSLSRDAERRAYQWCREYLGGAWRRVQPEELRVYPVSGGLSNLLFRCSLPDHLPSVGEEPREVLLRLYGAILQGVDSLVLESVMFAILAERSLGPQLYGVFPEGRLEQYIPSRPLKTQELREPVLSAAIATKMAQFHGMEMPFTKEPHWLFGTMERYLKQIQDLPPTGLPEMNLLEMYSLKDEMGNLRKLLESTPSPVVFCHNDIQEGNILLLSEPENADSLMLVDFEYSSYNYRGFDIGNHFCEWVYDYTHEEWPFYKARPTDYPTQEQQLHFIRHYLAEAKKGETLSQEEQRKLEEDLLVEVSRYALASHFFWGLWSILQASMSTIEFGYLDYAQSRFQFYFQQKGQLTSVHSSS
Outline: as §1

| Compound | IC50 (Δ49N-hChoKα) | IC50 (hChoKβ FL) |
| --- | --- | --- |
| CC1(C)Cc2cnc(N)nc2-c2[nH]nc(C(=O)Nc3ncc[nH]3)c21 [compound 144] | 546 nM | 688 nM |
| CC1(C)Cc2cnc(N)nc2-c2[nH]nc(C(=O)Nc3nc(CC(=O)NC4CCN(C5CCCCC5)CC4)cs3)c21 [compound 145] | 11 nM | 928 nM |
| CN(C)C1CCN(C(=O)Cc2cccc(NC(=O)c3n[nH]c4c3C(C)(C)Cc3cnc(N)nc3-4)c2)CC1 [compound 146] | 65 nM | 551 nM |
| CN(C)[C@@H]1CCN(Cc2csc(NC(=O)c3nn(C)c4c3C(C)(C)Cc3cnc(N)nc3-4)n2)C1 [compound 147] | 594 nM | > 10000 nM |
| CC1(C)Cc2cnc(N)nc2-c2[nH]nc(C(=O)Nc3nc(CC(=O)N4CCN(C5CCCCC5)CC4)cs3)c21 [compound 150] | 6 nM | 352 nM |
| CN1CCc2nc(NC(=O)c3n[nH]c4c3C(C)(C)Cc3cnc(N)nc3-4)sc2C1 [compound 151] | 174 nM | 5340 nM |
| Cc1csc(NC(=O)c2nn(C)c3c2C(C)(C)Cc2cnc(N)nc2-3)n1 [compound 155] | 629 nM | > 10000 nM |
| CC1(C)Cc2cnc(N)nc2-c2[nH]nc(C(=O)N3CCN(c4ccccc4)CC3)c21 [compound 161] | 507 nM | > 10000 nM |
| CC1(C)Cc2cnc(N)nc2-c2[nH]nc(C(=O)NCc3ccc(C(=O)N4CCC(N5CCCCC5)CC4)cc3)c21 [compound 165] | 180 nM | 69 nM |
| CN1CCC(NC(=O)c2ccc(CNC(=O)c3n[nH]c4c3C(C)(C)Cc3cnc(N)nc3-4)cc2)CC1 [compound 166] | 136 nM | 134 nM |
| Cc1csc(NC(=O)c2nn(CCO)c3c2C(C)(C)Cc2cnc(N)nc2-3)n1 [compound 182] | 458 nM | > 10000 nM |
| CC1(C)Cc2cnc(N)nc2-c2[nH]nc(C(=O)Nc3nc(C(F)(F)C(=O)N4CCC(N5CCCCC5)CC4)cs3)c21 [compound 183] | 13 nM | 654 nM |
| CC1CCN(C2CCN(C(=O)C(F)(F)c3csc(NC(=O)c4n[nH]c5c4C(C)(C)Cc4cnc(N)nc4-5)n3)CC2)CC1 [compound 191] | 7 nM | 303 nM |
| CC1CCN(C2CCN(C(=O)Cc3csc(NC(=O)c4c5c(nn4C)-c4nc(N)ncc4CC5(C)C)n3)CC2)CC1 [compound 211] | 108 nM | > 10000 nM |
| Cn1nc(C(=O)Nc2nc(COC3CCN(C4CCCCCC4)CC3)cs2)c2c1-c1nc(N)ncc1CC2(C)C [compound 217] | 18 nM | 3550 nM |
| CC1(C)CCN(C2CCN(C(=O)Cc3csc(NC(=O)c4n[nH]c5c4C(C)(C)Cc4cnc(N)nc4-5)n3)CC2)CC1 [compound 218] | 2 nM | 254 nM |
| CC1(C)CCCN(C2CCN(C(=O)Cc3csc(NC(=O)c4n[nH]c5c4C(C)(C)Cc4cnc(N)nc4-5)n3)CC2)C1 [compound 219] | 2 nM | 296 nM |
| CC(C)=CC(=O)CC(C)(C)NC(=O)Cc1csc(NC(=O)c2n[nH]c3c2C(C)(C)Cc2cnc(N)nc2-3)n1 [compound 220] | 30 nM | 1380 nM |
| CC1(C)Cc2cnc(N)nc2-c2[nH]nc(C(=O)Nc3nc(CC(=O)N4CCC(N5CCCC(F)(F)C5)CC4)cs3)c21 [compound 222] | 10 nM | 1650 nM |
| CC1CCCN(C2CCN(C(=O)Cc3csc(NC(=O)c4n[nH]c5c4C(C)(C)Cc4cnc(N)nc4-5)n3)CC2)C1 (stereo not shown) [compound 224] | 5 nM | 213 nM |
| CC1CCN(C2CCN(C(=O)Cc3csc(NC(=O)c4nn(C)c5c4CC(C)(C)c4cnc(N)nc4-5)n3)CC2)CC1 [compound 225] | 9 nM | 2260 nM |
| CC1CCN(C2(C)CCN(C(=O)Cc3csc(NC(=O)c4n[nH]c5c4C(C)(C)Cc4cnc(N)nc4-5)n3)CC2)CC1 [compound 227] | 2 nM | 26 nM |
| CC1CCN(C2CCN(C(=O)c3ccc4nc(NC(=O)c5n[nH]c6c5C(C)(C)Cc5cnc(N)nc5-6)sc4c3)CC2)CC1 [compound 228] | 9 nM | 963 nM |
| CC1(C)Cc2cnc(N)nc2-c2[nH]nc(C(=O)Nc3nc(CC(=O)N4CCC(N5CCC(F)(F)CC5)CC4)cs3)c21 [compound 229] | 18 nM | 840 nM |
| CC1CCN(C2CCN(C(=O)Cc3csc(NC(=O)c4n[nH]c5c4CC(C)(C)c4cnc(N)nc4-5)n3)CC2)CC1 [compound 231] | 3 nM | 104 nM |
| CC1(C)Cc2c(C(=O)Nc3nc(COC4CCN(C5CCCCCC5)CC4)cs3)n[nH]c2-c2nc(N)ncc21 [compound 232] | 8 nM | 146 nM |

Further lines, results first:

| IC50 (Δ49N-hChoKα) | IC50 (hChoKβ FL) | Compound |
| --- | --- | --- |
| 142 nM | 2160 nM | CC1(C)Cc2cnc(N)nc2-c2[nH]nc(C(=O)Nc3nc(CN4CCC(N5CCCCC5)CC4)cs3)c21 [compound 143] |
| 357 nM | 1100 nM | CN(C)[C@@H]1CCN(Cc2csc(NC(=O)c3n[nH]c4c3C(C)(C)Cc3cnc(N)nc3-4)n2)C1 [compound 148] |
| 164 nM | 3210 nM | CC1(C)Cc2cnc(N)nc2-c2[nH]nc(C(=O)Nc3cccc(CC(=O)N4CCC(N)CC4)c3)c21 [compound 149] |
| 534 nM | > 10000 nM | CC1(C)Cc2cnc(N)nc2-c2[nH]nc(C(=O)Nc3nc(CN4CCC(N)CC4)cs3)c21 [compound 152] |
| 14 nM | 564 nM | CC1(C)Cc2cnc(N)nc2-c2[nH]nc(C(=O)Nc3nc(CC(=O)N4CC[C@@H]([N+](C)(C)[O-])C4)cs3)c21 [compound 154] |
| 3 nM | 249 nM | CC1(C)Cc2cnc(N)nc2-c2[nH]nc(C(=O)Nc3nc(CNC4CCN(C5CCCCC5)CC4)cs3)c21 [compound 156] |
| 6 nM | 292 nM | CC1(C)Cc2cnc(N)nc2-c2[nH]nc(C(=O)Nc3nc(COC4CCN(C5CCCCC5)CC4)cs3)c21 [compound 157] |
| 25 nM | 2210 nM | CC1(C)Cc2cnc(N)nc2-c2[nH]nc(C(=O)Nc3nc(CC(=O)N4CCN(c5ccccc5)CC4)cs3)c21 [compound 160] |
| 17 nM | 887 nM | CC1CCN([C@H]2CC[C@H](OCc3csc(NC(=O)c4n[nH]c5c4C(C)(C)Cc4cnc(N)nc4-5)n3)CC2)CC1 [compound 170] |
| 31 nM | 1560 nM | CC1(C)Cc2cnc(N)nc2-c2[nH]nc(C(=O)Nc3nc(COC4CCN(C5CCC(F)(F)CC5)CC4)cs3)c21 [compound 189] |
| 8 nM | 546 nM | CC1(C)CCC(N2CCC(OCc3csc(NC(=O)c4n[nH]c5c4C(C)(C)Cc4cnc(N)nc4-5)n3)CC2)CC1 [compound 190] |
| 5 nM | 230 nM | CC1(C)Cc2cnc(N)nc2-c2[nH]nc(C(=O)Nc3nc(COC4CCN(C5CCCCCC5)CC4)cs3)c21 [compound 209] |
| 8 nM | 457 nM | CC1(C)Cc2cnc(N)nc2-c2[nH]nc(C(=O)Nc3nc(COC4CCN(CC5CCCCC5)CC4)cs3)c21 [compound 212] |
| 16 nM | 450 nM | CC1(C)Cc2cnc(N)nc2-c2[nH]nc(C(=O)Nc3nc(COC4CCN(Cc5ccccc5)CC4)cs3)c21 [compound 213] |
| 10 nM | 782 nM | CC1(C)CCC(N2CCC(OCc3csc(NC(=O)c4n[nH]c5c4C(C)(C)Cc4cnc(N)nc4-5)n3)CC2)CC1 [compound 221] |
| 4 nM | 184 nM | CC1(C)Cc2cnc(N)nc2-c2[nH]nc(C(=O)Nc3nc(COC4CCN(C5CCCCCC5)CC4)cs3)c21 [compound 223] |
| 20 nM | 376 nM | CC1(OCc2csc(NC(=O)c3n[nH]c4c3C(C)(C)Cc3cnc(N)nc3-4)n2)CCN(C2CCCCCC2)CC1 [compound 226] |
| 24 nM | 594 nM | CC1(C)Cc2cnc(N)nc2-c2[nH]nc(C(=O)Nc3nc(COC4CCN(C5CCC6(CC5)CC6)CC4)cs3)c21 [compound 230] |
